From article PMC8400955 (Pharmaceuticals, 2021)
Like-named read-outs stand apart in the source and are kept apart here.

Columns and labels:
CYP2B6 = assay: CYP induction (enzyme activity) in cryopreserved human hepatocytes, CYP2B6; details: for fold induction at 72 h, 0.15 µM / fold induction at 72 h, 1.5 µM / fold induction at 72 h, 5 µM / fold induction at 72 h, 15 µM: human, plated cryopreserved human hepatocytes
mouse hepatocytes = assay: Metabolic stability in mouse hepatocytes; format: in vitro ADME; details: 1 μM
Experimental: (§1) Hepatocytes of humans (#X008001), dogs (#M00205), rats (#M00005), and mice (#M005052) were purchased from BioIVT, NY, USA. Monkey hepatocytes were procured from RILD, Shanghai, China. The metabolic stability of ZB716 in human, monkey, dog, rat and mouse hepatocytes was investigated by incubating ZB716 with human, monkey, dog, rat, and mouse hepatocytes (0.5 × 10^6 cells/mL), or with incubation medium only.
(§2) parent disappearance vs. incubation time curve.
(§3) Scaled-up Clint = kV/N × Scaling Factor
(§4) metabolite formed during the reaction.

[1] = Metabolic stability in mouse hepatocytes; format: in vitro ADME
Experimental: as §1, §2, §3, §4

CYP2C19 = CYP2C19 (Homo sapiens, UniProt P33261); assay: CYP phenotyping, recombinant CYP2C19
Sequence of CYP2C19 (P33261 whole entry): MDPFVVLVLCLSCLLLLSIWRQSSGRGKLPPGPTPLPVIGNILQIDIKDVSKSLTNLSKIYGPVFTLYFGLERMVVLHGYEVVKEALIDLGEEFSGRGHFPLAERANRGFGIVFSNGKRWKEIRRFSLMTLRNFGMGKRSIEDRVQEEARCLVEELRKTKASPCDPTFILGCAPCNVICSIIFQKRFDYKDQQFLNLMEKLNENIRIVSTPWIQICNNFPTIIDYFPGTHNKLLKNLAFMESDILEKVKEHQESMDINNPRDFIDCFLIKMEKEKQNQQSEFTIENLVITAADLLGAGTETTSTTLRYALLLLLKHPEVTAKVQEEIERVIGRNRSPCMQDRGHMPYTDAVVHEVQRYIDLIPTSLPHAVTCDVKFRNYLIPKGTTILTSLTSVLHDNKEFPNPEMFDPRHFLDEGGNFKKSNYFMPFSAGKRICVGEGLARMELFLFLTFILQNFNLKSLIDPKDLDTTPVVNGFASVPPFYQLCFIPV

[2] = Single-dose PK and bioavailability of ZB716 in rats; format: in vivo; details: Sprague Dawley, rat, plasma; for bioavailability: PO 6 mg/kg/day vs IV 2 mg/kg/day
[3] = female, single dose, IV 2 mg/kg/day, F
[4] = female, single dose, PO 6 mg/kg/day, F
[5] = female, single dose, PO 30 mg/kg/day, F
[6] = female, single dose, PO 100 mg/kg/day, F
[7] = female, single dose, PO 400 mg/kg/day, F
[8] = male, single dose, IV 2 mg/kg/day, M
[9] = male, single dose, PO 6 mg/kg/day, M
[10] = male, single dose, PO 30 mg/kg/day, M
[11] = male, single dose, PO 100 mg/kg/day, M
[12] = male, single dose, PO 400 mg/kg/day, M

C[C@]12CC[C@@H]3c4ccc(B(O)O)cc4C[C@@H](CCCCCCCCC[S+]([O-])CCCC(F)(F)C(F)(F)F)[C@H]3[C@@H]1CC[C@@H]2O (some centres unmarked) [ZB716, fulvestrant-3-boronic acid]
induction fold compared to the vehicle control (CYP2B6; all three donors, 1.5–15 μM): 2.98–6.40 | induction percentage of the positive control (CYP2B6; all three donors, 1.5–15 μM): 37.4–92.1% | Percent of Control (CYP2B6; donor one, 0.15 µM): 2.22% | Percent of Control (CYP2B6; donor one, 1.5 µM): 17.2% | Percent of Control (CYP2B6; donor one, 5 µM): 70.6% | Percent of Control (CYP2B6; donor one, 15 µM): 73.0% | Percent of Control (CYP2B6; donor three, 0.15 µM): 2.61% | Percent of Control (CYP2B6; donor three, 1.5 µM): 39.2% | Percent of Control (CYP2B6; donor three, 5 µM): 37.4% | Percent of Control (CYP2B6; donor three, 15 µM): 4.18% | Percent of Control (CYP2B6; donor two, 0.15 µM): 3.16% | Percent of Control (CYP2B6; donor two, 1.5 µM): 19.8% | Percent of Control (CYP2B6; donor two, 5 µM): 71.7% | Percent of Control (CYP2B6; donor two, 15 µM): 92.1% | fold induction at 72 h, 0.15 µM (CYP2B6; donor one, 0.15 µM): 1.1 ± 0.05 | fold induction at 72 h, 1.5 µM (CYP2B6; donor one, 1.5 µM): 1.77 ± 0.13 | fold induction at 72 h, 5 µM (CYP2B6; donor one, 5 µM): 4.14 ± 0.06 | fold induction at 72 h, 15 µM (CYP2B6; donor one, 15 µM): 4.24 ± 0.47 | fold induction at 72 h, 0.15 µM (CYP2B6; donor three, 0.15 µM): 1.14 ± 0.09 | fold induction at 72 h, 1.5 µM (CYP2B6; donor three, 1.5 µM): 3.07 ± 0.36 | fold induction at 72 h, 5 µM (CYP2B6; donor three, 5 µM): 2.98 ± 0.74 | fold induction at 72 h, 15 µM (CYP2B6; donor three, 15 µM): 1.22 ± 0.42 | fold induction at 72 h, 0.15 µM (CYP2B6; donor two, 0.15 µM): 1.19 ± 0.1 | fold induction at 72 h, 1.5 µM (CYP2B6; donor two, 1.5 µM): 2.16 ± 0.07 | fold induction at 72 h, 5 µM (CYP2B6; donor two, 5 µM): 5.21 ± 0.24 | fold induction at 72 h, 15 µM (CYP2B6; donor two, 15 µM): 6.4 ± 0.16 | Remaining at 120 min (mouse hepatocytes): 6.24 ± 0.58% | half-life at 1 μM ([1]; read-out: Estimated In Vitro t1/2): 34.4 ± 0.6 min | hepatocyte CLint at 1 μM ([1]; read-out: In Vitro Clint): 40.3 ± 0.7 µL/min/1e6 cells | CLint scaled at 1 μM ([1]; read-out: Scaled-Up Clint): 476 ± 8 mL/min/kg | half-life at 2 µM (CYP2C19; human): 21.6 ± 2 min | Clint (CYP2C19; recombinant CYP2C19, 2 µM ZB716): 0.646 ± 0.063 µL/min/pmol CYP | Tmax ([2]; both sexes, single oral administration, mostly, post-dose, read-out: Tmax): 30 to 120 min | bioavailability ([2]; female, F): 5.98% | AUC(0-t) [2, 3]: 6440 ng·h/mL | Cmax [2, 3]: 4530 ng/mL | Tmax ([2]; female, single dose, IV 2 mg/kg/day, F, read-out: Tmax (median)): 5 min | AUC(0-t) [2, 4]: 1160 ng·h/mL | Cmax [2, 4]: 347 ng/mL | Tmax ([2]; female, single dose, PO 6 mg/kg/day, F, read-out: Tmax (median)): 30 min | AUC(0-t) [2, 5]: 15700 ng·h/mL | Cmax [2, 5]: 3520 ng/mL | Tmax ([2]; female, single dose, PO 30 mg/kg/day, F, read-out: Tmax (median)): 60 min | AUC(0-t) [2, 6]: 30500 ng·h/mL | Cmax [2, 6]: 3590 ng/mL | Tmax ([2]; female, single dose, PO 100 mg/kg/day, F, read-out: Tmax (median)): 30 min | AUC(0-t) [2, 7]: 55600 ng·h/mL | Cmax [2, 7]: 4310 ng/mL | Tmax ([2]; female, single dose, PO 400 mg/kg/day, F, read-out: Tmax (median)): 60 min | bioavailability ([2]; male, M): 6.36% | AUC(0-t) [2, 8]: 4910 ng·h/mL | Cmax [2, 8]: 5370 ng/mL | Tmax ([2]; male, single dose, IV 2 mg/kg/day, M, read-out: Tmax (median)): 5 min | AUC(0-t) [2, 9]: 936 ng·h/mL | Cmax [2, 9]: 321 ng/mL | Tmax ([2]; male, single dose, PO 6 mg/kg/day, M, read-out: Tmax (median)): 30 min | AUC(0-t) [2, 10]: 5410 ng·h/mL | Cmax [2, 10]: 1720 ng/mL | Tmax ([2]; male, single dose, PO 30 mg/kg/day, M, read-out: Tmax (median)): 120 min | AUC(0-t) [2, 11]: 12500 ng·h/mL | Cmax [2, 11]: 3010 ng/mL | Tmax ([2]; male, single dose, PO 100 mg/kg/day, M, read-out: Tmax (median)): 30 min | AUC(0-t) [2, 12]: 32600 ng·h/mL | Cmax [2, 12]: 2860 ng/mL | Tmax ([2]; male, single dose, PO 400 mg/kg/day, M, read-out: Tmax (median)): 30 min
